Data on one compound can be found in patent US8771983B2, “Method and kit for expressing protein under regulation of the expression from repeated sequence formed by gene amplification, and transformant” (National University of Corporation Hiroshima University, priority 2004, dated 2014).

The experiment relates to expression of d2EGFP in human colon cancer cells COLO 320DM cells. The experiment is described as follows: Level of expression of d2EGFP after treatment of cells with 5-aza-2′-deoxycytidine and/or Trichostatin A (Example 6). In kind it is cell-based. The note with it: for accumulated fluorescence intensity / average fluorescence intensity: 3 days. As for the experimental part:
Fluorescence intensity of these cells were measured by using a cell sorter. The measurement was carried out by sorting 20,000 cells by setting living cells at a gate. The cell sorter used was made by Becton Dickinson, and operated under conditions as described in the manual attached thereto.
In this method for detecting the fluorescence intensity, detection limit was 1, and all fluorescence intensities of 1 or less would be detected as 1. In view of this, a product of a ratio (cell %) of cells of fluorescence intensities of 2 or more in all living cells (10,000 cells) and an average of the fluorescence intensities of the cells having fluorescence intensities of 2 or more was calculated out for each experimental plot. This product is referred to as “accumulated fluorescence intensity” hereinafter and in later Examples and shown in boxed letter in the figures.
A mixture of a plasmid (pSFVdhfr/d2EGFP) and the plasmid DNA having the Aves-derived HS4 insulator sequence was transfected to human colon cancer cells COLO 320DM cells by lipofection. The plasmid (pSFVdhfr/d2EGFP) was a plasmid having (a) IR and MAR derived from human DHFR gene locus, (b) Blasticidin tolerance gene, and (c) d2EGFP gene that was under control of TRE-promoter (Tetracycline inducing promoter). The plasmid DNA having the Aves-derived HS4 insulator sequence was identical with the one described in Example 2. From 2 days later since the gene transfection, the cells were selected with 5 μg/ml of Blasticidin (Funakoshi Corp.). After 3 to 4 weeks, many colonies of transformed cells were obtained.
Into a culture solution of the transformed cells, of 1 μM or 3 μM of 5-aza-2′ deoxycytidine (hereinafter referred to as “5-aza” where appropriate; Sigma) was added. Thereby, the cells were treated with 5-aza for 3 days. For comparison purposes, 20 nM of Trichostatin A (hereinafter referred to as “TSA” where appropriate; histone deacetylation inhibitor, Sigma), which is known as a material for increasing gene expression from the repeated sequence, was added to some culture solutions of the transformed cells and analyzed.

Under “1 μM of 5-aza”, `Nc1ncn([C@H]2C[C@H](O)[C@@H](CO)O2)c(=O)n1` [5-aza, 5-aza-2′-deoxycytidine] gave an accumulated fluorescence intensity of 895 and an average fluorescence intensity of 9.48. Moreover, where the note is “3 μM of 5-aza”, the accumulated fluorescence intensity stood at 1040 and the average fluorescence intensity was found to be 10.93. Also, under “fluorescence microscopic images, 1 μM of 5-aza”, the “fluorescence intensity of the cells after treatment versus before treatment” value is reported as “higher”.
